Measurements taken from PMC3407934, “Functional Expression in Escherichia coli of the Disulfide-Rich Sea Anemone Peptide APETx2, a Potent Blocker of Acid-Sensing Ion Channel 3” (Marine Drugs, 2012).
Entries after “also recorded” stand apart in the source; their conditions may differ. Where two headings read alike, the source gives them in different places. Positions of bridges follow the written chain, without caps; N, C: chain ends. No end group written: not given here.

Key:
ASIC3 = settings: cited from earlier work; for potency and specificity of ASIC3 inhibition (in words): statement on the majority of currently known inhibitors of ASIC3
Description: Acid-sensing ion channels (ASICs) are proton-gated sodium channels present in the central and peripheral nervous system of chordates. ASIC3 is highly expressed in sensory neurons and plays an important role in inflammatory and ischemic pain. Thus, specific inhibitors of ASIC3 have the potential to be developed as novel analgesics. […] However, the mechanism of action of APETx2 and the molecular basis for its interaction with ASIC3 is not known. In order to assis ... || The pharmacology of ASIC3 is still relatively poorly understood when compared with voltage-gated sodium (NaV) and calcium (CaV) channels. Thus, the characterization of, and development of structure-activity relationships for, selective ASIC3 modulators will be useful for characterizing the function of ASIC3 under both normal and pathophysiological conditions.

[1] = system: acid-induced and post-operative pain in rats; design: method as in PMID 18923424, PMID 21508231, PMID 20860671; settings: cited from earlier work
rodent pain models = settings: cited from earlier work
Description: (§1) The pharmacology of ASIC3 is still relatively poorly understood when compared with voltage-gated sodium (NaV) and calcium (CaV) channels. Thus, the characterization of, and development of structure-activity relationships for, selective ASIC3 modulators will be useful for characterizing the function of ASIC3 under both normal and pathophysiological conditions. […] The majority of currently known inhibitors of ASIC3 (e.g., gadolinium, a ...

[2] = system: ASIC3-containing channels (ASIC3, ASIC3/1a, ASIC3/1b, ASIC3/2b); settings: cited from earlier work
Description: as §1

NaV1.8 = settings: cited from earlier work
Description: The pharmacology of ASIC3 is still relatively poorly understood when compared with voltage-gated sodium (NaV) and calcium (CaV) channels. Thus, the characterization of, and development of structure-activity relationships for, selective ASIC3 modulators will be useful for characterizing the function of ASIC3 under both normal and pathophysiological conditions.

rat ASIC3 = molecular target: T1, rat ASIC3 (Rattus norvegicus, UniProt O35240); test: Inhibition of homomeric rat ASIC3 currents in Xenopus oocytes (two-electrode voltage clamp); format: cell-based; settings: rat ASIC3 in Xenopus laevis oocytes; pH drop from 7.4 to 6.0 every minute; -60 mV; RT (18–21 °C); ND96 with 0.1% BSA; pH 6 stimulus buffered with MES
T1 construct: expressed in transfected cells; host or cells: Xenopus laevis oocytes (cRNA injection)
T1 sequence (O35240 1-533): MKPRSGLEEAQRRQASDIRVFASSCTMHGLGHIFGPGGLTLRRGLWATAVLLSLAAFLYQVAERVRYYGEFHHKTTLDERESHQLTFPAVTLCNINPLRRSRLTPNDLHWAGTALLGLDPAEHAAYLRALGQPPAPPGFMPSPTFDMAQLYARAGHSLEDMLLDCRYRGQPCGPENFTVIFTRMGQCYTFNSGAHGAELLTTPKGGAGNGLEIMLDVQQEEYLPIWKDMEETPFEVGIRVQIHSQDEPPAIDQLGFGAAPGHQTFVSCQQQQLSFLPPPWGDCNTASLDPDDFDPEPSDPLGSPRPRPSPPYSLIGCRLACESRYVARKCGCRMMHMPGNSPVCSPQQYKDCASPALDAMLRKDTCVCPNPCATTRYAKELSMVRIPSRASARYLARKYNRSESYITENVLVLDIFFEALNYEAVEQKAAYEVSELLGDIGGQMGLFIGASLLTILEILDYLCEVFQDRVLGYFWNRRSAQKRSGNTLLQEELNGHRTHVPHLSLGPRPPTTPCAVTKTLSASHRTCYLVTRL
Protocol: The efficacy of rAPETx2 was tested on rat ASIC3 expressed in Xenopus laevis oocytes.
Figure 4 (A) Representative current traces comparing the concentration-dependent inhibition of rat ASIC3 (expressed in Xenopus oocytes) by synthetic (s) and recombinant (r) APETx2. (B) Concentration-effect curves for sAPETx2 and an rAPETx2–F15A mutant.
Oocytes were obtained from Xenopus laevis and defolliculatd by treatment with collagenase (Sigma type I). Rat ASIC3 cRNA was synthesised using an mMessage mMachine cRNA transcription kit and healthy stage V–VI oocytes injected with 4 ng rat ASIC3 cRNA (40 nL of 100 ng/μL). Oocytes were kept at 17 °C in ND96 solution (96 mM NaCl, 2 mM KCl, 1 mM CaCl2, 2 mM MgCl2, 5 mM HEPES, 5 mM pyruvic acid, 50 µg/mL gentamicin, 2.5% fetal horse serum, pH 7.4). Membrane currents were recorded 2–6 days post cRNA injection under voltage-clamp (Axoclamp 900A amplifier, Molecular Devices, Sunnyvale, CA, USA) using two standard glass microelectrodes with resistances of 0.5–1 MΩ when filled with 3 M KCl solution. Data acquisition and analysis were performed using pCLAMP software (Version 10, Molecular Devices, Sunnyvale, CA, USA). Oocytes were clamped at −60 mV with data sampled at 1000 Hz and filtered at […]. All experiments were performed at RT (18–21 °C) in ND96 solution containing 0.1% fatty acid free-bovine serum albumin (BSA). […]

Cc1nc(NC(=N)N)nc2ccccc12 [GMQ, 2-guanidine-4-methylquinazoline]
ASIC3 agonism (in words) (ASIC3; normal pH): persistent activation at normal pH

N=C(N)NC(=O)c1nc(Cl)c(N)nc1N [amiloride]
potency and specificity of ASIC3 inhibition (in words) (ASIC3): neither potent nor specific

[Gd] [gadolinium]
potency and specificity of ASIC3 inhibition (in words) (ASIC3): neither potent nor specific

APETx2
effect on acid-induced and post-operative pain (in words) [1]: abolish acid-induced and post-operative pain in rats
analgesic effect in rodent pain models (in words) (rodent pain models): analgesic in rodent pain models
IC50 ([2]; homomeric ASIC3, read-out: IC50 for homomeric ASIC3): ~60 nM
IC50 ([2]; upper end of range, depending on the subunit composition of the channel, read-out: IC50 for ASIC3-containing channels (upper end)): ≤ 2000 nM
potency and selectivity for ASIC3 (in words) (ASIC3; ASIC3 / ASIC3-containing channels): most potent and selective inhibitor of ASIC3-containing channels; also recorded: only known potent and selective inhibitor of ASIC3; also recorded: specific peptide blocker of ASIC3
inhibition of NaV1.8 (in words) (NaV1.8): inhibits NaV 1.8
potency on NaV1.8 relative to ASIC3 (in words) (NaV1.8; compared with ASIC3): lower potency than for ASIC3

GTACSCGNSKGIYWFYRPSCPTDRGYTGSCRYFLGTCCTPAD (disulfide 4-37, 6-30, 20-38) [rAPETx2]
IC50 (rat ASIC3): 80 nM
